In ChEMBL document CHEMBL1671770, “Small molecule inhibition of protein depalmitoylation as a new approach towards downregulation of oncogenic Ras signalling” (Bioorg Med Chem, 2011) one finds IC50 data, which are given here for one compound.

Molecules are shown by their SMILES.

This assay deals with Acyl-protein thioesterase 1 (Homo sapiens, UniProt O75608). The assay can be described thus: Inhibition of APT1.
Chain of Acyl-protein thioesterase 1 (O75608 whole entry): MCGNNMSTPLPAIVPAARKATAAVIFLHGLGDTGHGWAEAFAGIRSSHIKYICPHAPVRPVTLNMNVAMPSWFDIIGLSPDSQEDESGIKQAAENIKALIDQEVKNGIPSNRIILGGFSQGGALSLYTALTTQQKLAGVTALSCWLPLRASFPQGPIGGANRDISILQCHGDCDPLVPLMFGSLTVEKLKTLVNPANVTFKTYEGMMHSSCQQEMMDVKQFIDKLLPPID

In turn, `CCCCCCCCCC[C@@H]1C(=O)O[C@H]1CCc1ccc(OC)c(OC)c1` [PALMOSTATIN B] came in with an IC50 of 670 nM.
